Laboratory results published in patent US9481712B2, “Peptidomimetics possessing photo-controlled biological activity” (priority 2013, dated 2016).
≈ marks a conversion by molar mass, not a printed value. *1 amine or outer side, *2 acyl side, *3 side chain or, on linkers, in order; H or OH if unused. Where a SMILES comes first, the peptide text is derived from it. Bridges are numbered along the chain shown (N, C = ends). [ ]: non-standard residue; d: D form. X2 = CC12SC(C(=O)NN[*:2])=CC1=C1CCCC1=C1C=C(C(=O)[*:1])SC12C; X1 = Cc1sc(C(=O)NN[*:2])cc1C1=C(c2cc(C(=O)[*:1])sc2C)CCC1; Orn = NCCC[C@H](N)C(=O)O

Tests used:
[1] = test system: erythrocytes; format: cell-based, human; settings: pH 7.6
Procedure: To test the hemolytic activities of GS and its analogues, conserved human blood samples were obtained from Karlsruhe municipal hospital and washed four times in Tris buffer, pH 7.6, at 4° C. Aliquots of the blood cells were incubated with different concentrations of the peptide/peptidomimetics for 30 min at 37° C. and subsequently centrifuged. The absorption of the supernatant at 540 nm gives the extent of hemolysis, relative to 0% as taken from the peptide-free control and 100% after treatment with Triton X-100 (not to interfere with this analysis, the samples with GS analogues in the “closed” form were back-converted to their “open” forms by 30 min exposure to the visible light). The HC50 values, where 50% of the erythrocytes were lysed, were determined from the concentration dependent curves and are listed in Table 3. Small HC50 values indicate a high hemolytic activity, and vice versa. […] This proves by several independent assays that the biological activities of the photo-switchable GS analogues could be controlled by light.

[2] = test system: Escherichia coli DSM 1103; format: cell-based
Procedure: (§1) The antimicrobial activities of GS and its analogues were measured using broth microdilution assay using a standard protocol [Daniel Amsterdam (1996). Susceptibility testing of antimicrobials in liquid media. In: Antibiotics in laboratory medicine, Loman, V., ed., 4th ed. Williams and Wilkins, Baltimore, Md., pp. 52-111]. The peptidomimetic compounds were tested against bacteria strains Escherichia coli DSM 1103, Staphylococcus aureus DSM 1104, Staphylococcus epidermidis DSM 1708, and Staphylococcus xylosus DSM 20267. GS analogues in the “closed” form were prepared in advance by RP-HPLC and stored protecting them from light. The corresponding minimal inhibitory concentrations (MIC) are listed in Table 2, where a small MIC value indicates a high antimicrobial activity, and vice versa.

[3] = test system: Staphylococcus aureus DSM 1104; format: cell-based
Procedure: as §1

[4] = test system: Staphylococcus xylosus DSM 20267; format: cell-based
Procedure: as §1

[5] = test system: Staphylococcus epidermidis DSM 1708; format: cell-based
Procedure: as §1

[6] = test system: Staphylococcus xylosus; test: photo-activation on bacterial lawn (FIG. 5); format: cell-based; settings: 6 or 8 μg/ml "closed" form converted 60% or 80% by visible light; 37° C. for 18 hours
Excerpt: The compound was applied to the bacterial lawn at different concentrations and then irradiated by visible light. Some geometrical shapes were cut out from a paper covering the entire Petri dish, such that the photo-switchable compound was converted into the “open” form only in those small areas exposed to the light. […] One further experiment aimed at finding these optimal conditions for treatment with the peptidomimetic GS-SwFP is illustrated in FIG. 5.

[7] = photo-conversion from "closed" to "open" form by visible light (RP-HPLC); format: physicochemical
Procedure: The reverse photo-conversion of the peptidomimetic GS-Sw(FP) from the “closed” to the “open” form by visible light was also tested. A solution of peptide in the pink-colored “closed”-form (in a water-acetonitrile mixture, 3:1, 100 μg/ml) was used. The conversion of the peptidomimetic from the “closed”-form to the “open”-form was determined by RP-HPLC (analytical C18 column, linear A:B gradient of 4% B/min, 1.5 ml/min flow rate) after 0.25, 1.5, 5.5, 7.5 min of irradiation by visible light. A bright halogen lamp (250 Watts) was used, and the solutions were placed in 10 cm distance from the light source. The obtained data fitted well to the exponential equation y=[…], where y is a conversion of “closed” form into the “open” form, t is the time of the illumination and r is the half-conversion time. […] The conversion from “closed” to “open” could be achieved to 100%.

[8] = 250 W halogen lamp, 10 cm, water-acetonitrile 3:1, 100 μg/ml, from exponential fit

Row | minimal inhibitory concentration (MIC) [2] [µg/mL] | minimal inhibitory concentration (MIC) [3] [µg/mL] | minimal inhibitory concentration (MIC) [4] [µg/mL] | minimal inhibitory concentration (MIC) [5] [µg/mL] | achievable conversion from "closed" to "open" [7] [%] | time of illumination to achieve 60% transformation "closed" to "open" [7, 8] [min] | time of illumination to achieve 80% conversion "closed" to "open" [7, 8] [min] | Compound | H50 (50% of hemolysis) [1] | antimicrobial effect on bacterial lawn after activation to "open" form [6]
1 | >128 | 8 (≈ 6.53 µM) | 8 (≈ 6.53 µM) | 16 (≈ 13.1 µM) | – | – | – | Cc1sc2cc1C1=C(CCC1)c1cc(sc1C)C(=O)N1CCC[C@H]1C(=O)N[C@@H](C(C)C)C(=O)N[C@@H](CCCN)C(=O)N[C@@H](CC(C)C)C(=O)N[C@H](Cc1ccccc1)C(=O)N1CCC[C@H]1C(=O)N[C@@H](C(C)C)C(=O)N[C@@H](CCCN)C(=O)NNC2=O [GS-Sw(LF), “open”, cyclo(^DFPVO-1b-PVOL)] (PV[Orn]L[dF]PV[Orn]; linker N-C via X1) | 47 µg/mL | –
2 | >128 | 16 (≈ 12.4 µM) | 32 (≈ 24.8 µM) | 32 (≈ 24.8 µM) | – | – | – | CC(C)C[C@@H]1NC(=O)[C@H](CCCN)NC(=O)[C@H](C(C)C)NC(=O)[C@@H]2CCCN2C(=O)[C@@H](Cc2ccccc2)NC(=O)[C@H](CC(C)C)NC(=O)[C@H](CCCN)NC(=O)C2=CC3=C4CCCC4=C4C=C(SC4(C)C3(C)S2)C(=O)NNC(=O)[C@@H](Cc2ccccc2)NC1=O (stereo partly drawn) [GS-Sw(PV), “closed”, cyclo(^DFPVOL^DF-1b-OL)] ([Orn]L[dF]PV[Orn]L[dF]; linker N-C via X2) | 58 µg/mL | –
3 | >128 | 4 (≈ 3.1 µM) | 4 (≈ 3.1 µM) | 4 (≈ 3.1 µM) | – | – | – | Cc1sc2cc1C1=C(CCC1)c1cc(sc1C)C(=O)N[C@@H](CCCN)C(=O)N[C@@H](CC(C)C)C(=O)N[C@H](Cc1ccccc1)C(=O)N1CCC[C@H]1C(=O)N[C@@H](C(C)C)C(=O)N[C@@H](CCCN)C(=O)N[C@@H](CC(C)C)C(=O)N[C@H](Cc1ccccc1)C(=O)NNC2=O [GS-Sw(PV), “open”, cyclo(^DFPVOL^DF-1b-OL)] ([Orn]L[dF]PV[Orn]L[dF]; linker N-C via X1) | 6 µg/mL | –

Second part, the compound before the results:

Row | Compound | minimal inhibitory concentration (MIC) [2] [µg/mL] | minimal inhibitory concentration (MIC) [3] [µg/mL] | minimal inhibitory concentration (MIC) [4] [µg/mL] | minimal inhibitory concentration (MIC) [5] [µg/mL] | achievable conversion from "closed" to "open" [7] [%] | time of illumination to achieve 60% transformation "closed" to "open" [7, 8] [min] | time of illumination to achieve 80% conversion "closed" to "open" [7, 8] [min] | H50 (50% of hemolysis) [1] | antimicrobial effect on bacterial lawn after activation to "open" form [6]
4 | CC(C)C[C@@H]1NC(=O)[C@H](CCCN)NC(=O)[C@H](C(C)C)NC(=O)[C@@H]2CCCN2C(=O)[C@@H](Cc2ccccc2)NC(=O)[C@H](CC(C)C)NC(=O)[C@H](CCCN)NC(=O)[C@H](C(C)C)NC(=O)[C@@H]2CCCN2C(=O)[C@@H](Cc2ccccc2)NC1=O [GS, [PVOL^DFPVOL^DF]cyclo, reference compound] (cyclo(L[dF]PV[Orn]L[dF]PV[Orn])) | 8 (≈ 7.01 µM) | 2 (≈ 1.75 µM) | 1 (≈ 0.876 µM) | 2 (≈ 1.75 µM) | – | – | – | 12 µg/mL | –
5 | Cc1sc2cc1C1=C(CCC1)c1cc(sc1C)C(=O)N[C@@H](C(C)C)C(=O)N[C@@H](CCCN)C(=O)N[C@@H](CC(C)C)C(=O)N[C@H](Cc1ccccc1)C(=O)N1CCC[C@H]1C(=O)N[C@@H](C(C)C)C(=O)N[C@@H](CCCN)C(=O)N[C@@H](CC(C)C)C(=O)NNC2=O [GS-Sw(FP), cyclo(^DFPVOL-1b-VOL)] | – | – | – | – | 100 | 7.5 | 12.5 | – | pronounced antimicrobial activity
6 | CC(C)C[C@@H]1NC(=O)[C@H](CCCN)NC(=O)[C@H](C(C)C)NC(=O)[C@@H]2CCCN2C(=O)[C@@H](Cc2ccccc2)NC(=O)[C@H](CC(C)C)NC(=O)[C@H](CCCN)NC(=O)[C@H](C(C)C)NC(=O)C2=CC3=C4CCCC4=C4C=C(SC4(C)C3(C)S2)C(=O)NNC1=O (stereo partly drawn) [GS-Sw(FP), “closed”, cyclo(^DFPVOL-1b-VOL)] | >128 | 32 (≈ 25.8 µM) | 32 (≈ 25.8 µM) | 64 (≈ 51.5 µM) | – | – | – | 72 µg/mL | –
7 | Cc1sc2cc1C1=C(CCC1)c1cc(sc1C)C(=O)N[C@@H](C(C)C)C(=O)N[C@@H](CCCN)C(=O)N[C@@H](CC(C)C)C(=O)N[C@H](Cc1ccccc1)C(=O)N1CCC[C@H]1C(=O)N[C@@H](C(C)C)C(=O)N[C@@H](CCCN)C(=O)N[C@@H](CC(C)C)C(=O)NNC2=O [GS-Sw(FP), “open”, cyclo(^DFPVOL-1b-VOL)] | 128 (≈ 103 µM) | 4 (≈ 3.22 µM) | 8 (≈ 6.44 µM) | 8 (≈ 6.44 µM) | – | – | – | 6.5 µg/mL | –
8 | CC(C)C[C@@H]1NC(=O)[C@H](CCCN)NC(=O)[C@H](C(C)C)NC(=O)[C@@H]2CCCN2C(=O)C2=CC3=C4CCCC4=C4C=C(SC4(C)C3(C)S2)C(=O)NNC(=O)[C@H](CCCN)NC(=O)[C@H](C(C)C)NC(=O)[C@@H]2CCCN2C(=O)[C@@H](Cc2ccccc2)NC1=O (stereo partly drawn) [GS-Sw(LF), “closed”, cyclo(^DFPVO-1b-PVOL)] (PV[Orn]L[dF]PV[Orn]; linker N-C via X2) | 64 (≈ 52.2 µM) | 128 (≈ 104 µM) | 128 (≈ 104 µM) | 128 (≈ 104 µM) | – | – | – | >>128 μg/ml | –
